Data from US8569383B2, “Utilization of rhinologically active substances” (Symrise AG, priority 2000, dated 2013).

assay: Sensory test of toothpaste with eucalyptus menthol type flavoring by trained expert panel; format: in vivo; details: compared with 1-menthyl methyl ether
Experimental: Production of a Toothpaste Flavoring of the Eucalyptus Menthol Type, Using Menthyl Methyl Ether
The following were mixed:
In a second mixture batch, the 1,8-cineole (eucalyptol) content was replaced by 1-menthyl methyl ether. Both flavorings are incorporated at a concentration of 1.3% by weight into a standard toothpaste mix based on silicic acid. Both types of toothpaste were tested under conditions of practice by an expert panel trained in sensory testing.

SMILES	sensory effects when used instead of 1-menthyl methyl ether
COC(C)C1CCCC(C)(C)C1 (stereo not drawn) [1-(3,3-Dimethylcyclohexyl)ethyl methyl ether]	Comparable effects
COC1CC(C)CC(C)(C)C1 (stereo not drawn) [3,3,5-trimethylcyclohexyl methyl ether]	Comparable effects
C=C(C)C1CCC(C)CC1OC (stereo not drawn) [isopulegyl methyl ether, Isopulegyl methyl ether]	Comparable effects
